Experimental data from the NIST ThermoML archive (doi:10.1016/j.jct.2011.08.016).

Experiment: xn = mol fraction of the nth substance listed
Conditions: Liquid, Vibrating tube method

CCCCCCCCCC [decane] + CCCCCCCC
Conditions	mass density [kg/m3]
313.14 K, 1000 kPa, x2 = 0.0616	714.37
313.14 K, 2000 kPa, x2 = 0.0616	715.15
313.14 K, 3000 kPa, x2 = 0.0616	716
313.14 K, 4000 kPa, x2 = 0.0616	716.89
313.14 K, 5000 kPa, x2 = 0.0616	717.71
313.14 K, 6000 kPa, x2 = 0.0616	718.51
313.14 K, 7000 kPa, x2 = 0.0616	719.36
313.14 K, 8000 kPa, x2 = 0.0616	720.16
313.14 K, 9000 kPa, x2 = 0.0616	720.97
313.14 K, 10000 kPa, x2 = 0.0616	721.75
313.14 K, 10990 kPa, x2 = 0.0616	722.52
313.14 K, 12000 kPa, x2 = 0.0616	723.27
313.14 K, 13000 kPa, x2 = 0.0616	724.05
313.14 K, 14000 kPa, x2 = 0.0616	724.81
313.14 K, 15000 kPa, x2 = 0.0616	725.5
313.14 K, 16000 kPa, x2 = 0.0616	726.26
313.14 K, 17000 kPa, x2 = 0.0616	726.99
313.14 K, 18000 kPa, x2 = 0.0616	727.69
313.14 K, 19000 kPa, x2 = 0.0616	728.37
313.14 K, 20000 kPa, x2 = 0.0616	729.06
313.14 K, 21000 kPa, x2 = 0.0616	729.73
313.14 K, 22000 kPa, x2 = 0.0616	730.38
313.14 K, 23000 kPa, x2 = 0.0616	731.03
313.14 K, 24000 kPa, x2 = 0.0616	731.6
313.14 K, 25000 kPa, x2 = 0.0616	732.22
313.17 K, 1000 kPa, x2 = 0.2801	709.26
313.17 K, 1000 kPa, x2 = 0.9623	688.85
313.17 K, 2000 kPa, x2 = 0.2801	710.07
313.17 K, 2000 kPa, x2 = 0.9623	689.77
313.17 K, 3000 kPa, x2 = 0.2801	710.9
313.17 K, 3000 kPa, x2 = 0.9623	690.64
313.17 K, 4000 kPa, x2 = 0.2801	711.79
313.17 K, 4000 kPa, x2 = 0.9623	691.53
313.17 K, 5000 kPa, x2 = 0.2801	712.65
313.17 K, 5000 kPa, x2 = 0.9623	692.37
313.17 K, 6000 kPa, x2 = 0.2801	713.47
313.17 K, 6000 kPa, x2 = 0.9623	693.31
313.17 K, 7000 kPa, x2 = 0.2801	714.32
313.17 K, 7000 kPa, x2 = 0.9623	694.24
313.17 K, 8000 kPa, x2 = 0.2801	715.17
313.17 K, 8000 kPa, x2 = 0.9623	695.11
313.17 K, 9000 kPa, x2 = 0.2801	715.99
313.17 K, 9000 kPa, x2 = 0.9623	696.04
313.17 K, 10000 kPa, x2 = 0.2801	716.81
313.17 K, 10000 kPa, x2 = 0.9623	696.93
313.17 K, 10990 kPa, x2 = 0.2801	717.63
313.17 K, 10990 kPa, x2 = 0.9623	697.85
313.17 K, 12000 kPa, x2 = 0.2801	718.42
313.17 K, 12000 kPa, x2 = 0.9623	698.72
313.17 K, 13000 kPa, x2 = 0.2801	719.2
313.17 K, 13000 kPa, x2 = 0.9623	699.57
313.17 K, 14000 kPa, x2 = 0.2801	719.98
313.17 K, 14000 kPa, x2 = 0.9623	700.45
313.17 K, 15000 kPa, x2 = 0.2801	720.74
313.17 K, 15000 kPa, x2 = 0.9623	701.33
313.17 K, 16000 kPa, x2 = 0.2801	721.5
313.17 K, 16000 kPa, x2 = 0.9623	702.18
313.17 K, 17000 kPa, x2 = 0.2801	722.23
313.17 K, 17000 kPa, x2 = 0.9623	703
313.17 K, 18000 kPa, x2 = 0.2801	723
313.17 K, 18000 kPa, x2 = 0.9623	703.81
313.17 K, 19000 kPa, x2 = 0.2801	723.67
313.17 K, 19000 kPa, x2 = 0.9623	704.6
313.17 K, 20000 kPa, x2 = 0.2801	724.35
313.17 K, 20000 kPa, x2 = 0.9623	705.32
313.17 K, 21000 kPa, x2 = 0.2801	725.02
313.17 K, 21000 kPa, x2 = 0.9623	706.06
313.17 K, 22000 kPa, x2 = 0.2801	725.7
313.17 K, 22000 kPa, x2 = 0.9623	706.8
313.17 K, 23000 kPa, x2 = 0.2801	726.3
313.17 K, 23000 kPa, x2 = 0.9623	707.48
313.17 K, 24000 kPa, x2 = 0.2801	726.9
313.17 K, 24000 kPa, x2 = 0.9623	708.16
313.17 K, 25000 kPa, x2 = 0.2801	727.55
313.17 K, 25000 kPa, x2 = 0.9623	708.78
313.19 K, 1000 kPa, x2 = 0.5314	702.8
313.19 K, 1000 kPa, x2 = 0.7736	695.32
313.19 K, 2000 kPa, x2 = 0.5314	703.69
313.19 K, 2000 kPa, x2 = 0.7736	696.27
313.19 K, 3000 kPa, x2 = 0.5314	704.53
313.19 K, 3000 kPa, x2 = 0.7736	697.14
313.19 K, 4000 kPa, x2 = 0.5314	705.35
313.19 K, 4000 kPa, x2 = 0.7736	698.01
313.19 K, 5000 kPa, x2 = 0.5314	706.16
313.19 K, 5000 kPa, x2 = 0.7736	698.89
313.19 K, 6000 kPa, x2 = 0.5314	707.05
313.19 K, 6000 kPa, x2 = 0.7736	699.8
313.19 K, 7000 kPa, x2 = 0.5314	707.93
313.19 K, 7000 kPa, x2 = 0.7736	700.67
313.19 K, 8000 kPa, x2 = 0.5314	708.77
313.19 K, 8000 kPa, x2 = 0.7736	701.55
313.19 K, 9000 kPa, x2 = 0.5314	709.59
313.19 K, 9000 kPa, x2 = 0.7736	702.44
